# Key:
# [1] = test system: adherent cells from human PBMC; test: Type I IFN production by adherent cells from human PBMC, virus neutralization bioassay of supernatants; assay type: cell-based
# Method: (§1) The amount of Type I interferon (IFN) and tumor necrosis factor-α (TNF-α) produced by the cells in response to the treatment is also recorded in Table I.
# (§2) Briefly, adherent cells from human PBMC were treated with 1-100 U/mL recombinant IFN-α (Lee BioMolecular, San Diego, Calif.) for 24 hours, washed, and then treated with IRM (a concentrated solution of IRM in cell culture medium was added to reach the final concentration indicated in Table I) for an additional 24 hours. A separate group of control cells were treated only with IRM for 24 hours. Cell-free supernatants were then isolated from all of the cultures and analyzed for Type I IFN or TNF-α.
# (§3) Type I IFN production was assayed using a virus neutralization bioassay using A549 human lung carcinoma cells challenged with encephalomyocarditis. The details of the bioassay method have been described by G. L. Brennan and L. H. Kronenberg in “Automated Bioassay of Interferons in Micro-test Plates”, Biotechniques, June/July, 78, 1983, incorporated herein by reference. Briefly stated the method is as follows: A549 cells are incubated with dilutions of samples or a standard interferon at 37° C. for 24 hours. The incubated cells are then infected with an inoculum of encephalomyocarditis virus. The infected cells are incubated for an additional 24 hours at 37° C. before evaluating for viral cytopathic effect. The viral cytopathic effect is quantified by staining with crystal violet followed by visual scoring of the plates. Results are expressed as IFN-α reference units/mL based on the value obtained for NIH Human Leukocyte IFN standard. TNF-α production was determined by ELISA (Biosource International, Inc., Camarillo, Calif.).
# (§4) Adherent cells are obtained and prepared as described in Example 1. The cells are pre-treated as described in Example 1 with either poly(I:C), recombinant IFN-γ, recombinant IFN-α, or receive no pre-treatment. The cells are washed as described in Example 1, then treated as described in Example 1 with either IRM1, IRM2, IRM3, IRM4, IRM5, IRM6, IRM7, IRM8, or IRM9 for 24 hours.
# (§5) Cell free supernatants are isolated from all of the cultures and analyzed for Type I IFN or TNF-α.
# [2] = test system: adherent cells from human PBMC; test: TNF-α production by adherent cells from human PBMC, ELISA of supernatants; assay type: cell-based
# Method: as §1, §2, §3, §4, §5
# [3] = IRM1 0.3 μM for 24 hours after pre-treatment with 1-100 U/mL recombinant IFN-α for 24 hours, washed
# [4] = IRM1 0.3 μM for 24 hours, no pre-treatment
# [5] = IRM1 3.0 μM for 24 hours after pre-treatment with 1-100 U/mL recombinant IFN-α for 24 hours, washed
# [6] = IRM1 3.0 μM for 24 hours, no pre-treatment
smiles,measurement,setting,value
"Cc1nc2c(N)nc3ccccc3c2n1CC(C)(C)O [IRM1, 4-amino-α,α,2-trimethyl-1H-imidazo[4,5-c]quinoline-1-ethanol]",IFN-α,[1]; [3],"3,788 U/mL"
same,IFN-α,[1]; [4],5 U/mL
same,IFN-α,[1]; [5],"3,788 U/mL"
same,IFN-α,[1]; [6],5 U/mL
same,TNF-α,[2]; [3],114 pg/mL
same,TNF-α,[2]; [4],437 pg/mL
same,TNF-α,[2]; [5],284 pg/mL
same,TNF-α,[2]; [6],3295 pg/mL

# Source: patent publication US20050239735A1, “Enhancement of immune responses” (3M Innovative Properties Company, priority 2003, published 2005)
